Laboratory results published in article PMC6397271 (Scientific Reports, 2019).
Values after ≈ are worked out from the molar mass of the structure shown. Like-named read-outs stand apart in the source and are kept apart here.

How the values were obtained:
[1] = system: S. aureus MRSA hetero-VISA 6347; assay: microbe, parasite or virus in culture; type: cell-based, Staphylococcus aureus; conditions: for MIC: raw MIC
Description: (§1) Three bacterial strains of MRSA (N315, 12673, 6347) and two of Enterococcus spp. (E. faecium, E. faecalis) were used. With respect to MRSA, N315 represented a reference Van-susceptible strain (GenBank GCA_00000645.1) isolated from a patient while 12673 (Van-intermediately susceptible) and 6347 (a h-VISA which appears at frequency of <10^−5 to 10^−6 is composed of two subpopulations of bacteria: one susceptible and one intermediately resistant)[38] were clinical strains obtained from patients of The Clinical University Centre of Gdańsk (UCK). […] The clinical strain isolates originated from the collection of the Department of Pharmaceutical Technology and Biochemistry, Faculty of Chemistry, Gdańsk University of Technology.
(§2) The strains were grown in Mueller-Hinton broth (MH cation-adjusted, Becton Dickinson) or Brain Heart Infusion broth (BHI, Becton Dickinson), respectively. The cultivation was carried out in an aerobic atmosphere at 37 °C for 24 hours and, afterwards, the bacterial cultures were diluted in geometric progression with a proper broth. Next, 100 µl of each dilution was inoculated in an agar plate and incubated at 37 °C for 24 h. The next procedures included determination of Colony Forming Units (CFU)/ml and minimal inhibitory concentration (MIC) of the compounds in question. The latter procedure was carried out according to the microbroth dilution technique using 96-well plates. The MICs were evaluated by using the metabolic assay based on the resazurin dye. The assay was performed in triplicates.

S. aureus MRSA N315 = assay: microbe, parasite or virus in culture; type: cell-based, Staphylococcus aureus
Description: as §1, §2

S. aureus MRSA 12673 = assay: microbe, parasite or virus in culture; type: cell-based, Staphylococcus aureus; conditions: for MIC: raw MIC
Description: as §1, §2

sheep erythrocytes = assay: Erythrocyte lysis assay; type: cell-based; conditions: 37 °C, 1 hour, A450 nm; for cell lysis (haemolysis): 10^8 cells/ml, vs 4% Triton X-100, triplicates
Description: The protocol of the lysis assay is presented below.
To obtain sheep erythrocytes, 5 ml of fresh blood was centrifuged at 1000 × g for 10 min and washed 3 times with 0.9% NaCl. Cell suspension (final concentration of 10^8 cells/ml) in a volume of 75 µl was added to each well of the 96-well microtiter plate and incubated at 37 °C in the presence of the tested compounds. The range of their concentrations was 100–0.049 µM (diluted in saline solution), which included that of MIC values for the tested strains of the bacteria.
Plates with samples were incubated at 37 °C for 1 hour and then centrifuged at 1000 × g for 10 min to separate the unlysed erythrocytes. Next, the supernatant was transferred to a new plate. The absorbance (A) was measured spectrophotometrically at 450 nm of wavelength. The experiments were performed in triplicates.
The haemolysis percentage was calculated according to the equation presented by Sharma et al.[43]. The percentage of haemolysis = [(A450nm of test compound treated sample-A450nm of buffer treated sample)/(A450nm of 4%TritonX-100 treated samples-A450nm of buffer treated sample)] × 100.

[2] = system: Enterococcus faecalis 3937158; assay: microbe, parasite or virus in culture; type: cell-based; conditions: for MIC: raw MIC
Description: as §1, §2

[3] = system: Enterococcus faecium 3934825; assay: microbe, parasite or virus in culture; type: cell-based; conditions: for MIC: raw MIC
Description: as §1, §2

[4] = first block, test a, repetition 1, read-out: MIC1a
[5] = first block, test a, repetition 2, read-out: MIC2a
[6] = first block, test a, repetition 3, read-out: MIC3a
[7] = first block, test b, repetition 1, read-out: MIC1b
[8] = first block, test b, repetition 2, read-out: MIC2b
[9] = first block, test b, repetition 3, read-out: MIC3b
[10] = test a, repetition 1, read-out: MIC1a
[11] = test a, repetition 2, read-out: MIC2a
[12] = test a, repetition 3, read-out: MIC3a
[13] = test b, repetition 1, read-out: MIC1b
[14] = test b, repetition 2, read-out: MIC2b
[15] = test b, repetition 3, read-out: MIC3b
[16] = same test as μM value, mean ± SD

Compound: CC[C@H](C)[C@H](NC(=O)[C@H](CCCCN)NC(=O)[C@H](CCCCN)NC(=O)[C@H](C)NC(=O)[C@H](CC(C)C)NC(=O)[C@H](C)NC(=O)[C@H](C)NC(=O)[C@H](CC(C)C)NC(=O)[C@H](C)NC(=O)[C@H](CCCCN)NC(=O)[C@H](CC(C)C)NC(=O)[C@H](CC(N)=O)NC(=O)[C@@H](NC(=O)[C@H](CCCCN)NC(=O)CNC(=O)[C@H](CC(C)C)NC(=O)[C@H](CC(C)C)NC(=O)[C@H](Cc1ccc(O)cc1)NC(=O)CNC(=O)[C@H](C)NC(=O)c1cn(CCOCCOCCOCCNC(=O)[C@H]2NC(=O)[C@H]3NC(=O)[C@H](NC(=O)[C@@H]4NC(=O)[C@H](CC(N)=O)NC(=O)[C@H](NC(=O)[C@@H](CC(C)C)NC)[C@H](O)c5ccc(c(Cl)c5)Oc5cc4cc(c5O[C@@H]4O[C@H](CO)[C@@H](O)[C@H](O)[C@H]4O[C@H]4C[C@](C)(N)[C@H](O)[C@H](C)O4)Oc4ccc(cc4Cl)[C@H]3O)c3ccc(O)c(c3)-c3c(O)cc(O)cc32)nn1)[C@@H](C)CC)C(=O)N[C@@H](CC(C)C)C(N)=O [conjugate I, Van-PEG3-TP10]
- MIC [1, 4]: 1.56 µM (≈ 6.06 µg/mL)
- MIC [1, 5]: 1.56 µM (≈ 6.06 µg/mL)
- MIC [1, 6]: 0.78 µM (≈ 3.03 µg/mL)
- MIC [1, 7]: 1.56 µM (≈ 6.06 µg/mL)
- MIC [1, 8]: 1.56 µM (≈ 6.06 µg/mL)
- MIC [1, 9]: 1.56 µM (≈ 6.06 µg/mL)
- MIC [1, 10]: 6.06 µM (≈ 23.5 µg/mL)
- MIC [1, 11]: 6.06 µM (≈ 23.5 µg/mL)
- MIC [1, 12]: 3.03 µM (≈ 11.8 µg/mL)
- MIC [1, 13]: 6.06 µM (≈ 23.5 µg/mL)
- MIC [1, 14]: 6.06 µM (≈ 23.5 µg/mL)
- MIC [1, 15]: 6.06 µM (≈ 23.5 µg/mL)
- MIC in (μg/ml) [1, 16]: 6.1 ± 1.2 µg/mL (≈ 1.57 µM)
- MIC (S. aureus MRSA N315; microbroth dilution, 96-well, resazurin, 37 °C, 24 h, mean ± SD, at least three independent experiments in triplicates): 1.6 ± 0.9 µM (≈ 6.21 µg/mL)
- MIC (S. aureus MRSA N315; microbroth dilution, 96-well, resazurin, 37 °C, 24 h, mean ± SD, at least three independent experiments in triplicates, read-out: MIC): 1.6 µM (≈ 6.21 µg/mL)
- MIC (S. aureus MRSA N315; raw MIC, first block, test a, repetition 1, read-out: MIC1a): 1.56 µM (≈ 6.06 µg/mL)
- MIC (S. aureus MRSA N315; raw MIC, first block, test a, repetition 2, read-out: MIC2a): 3.12 µM (≈ 12.1 µg/mL)
- MIC (S. aureus MRSA N315; raw MIC, first block, test a, repetition 3, read-out: MIC3a): 1.56 µM (≈ 6.06 µg/mL)
- MIC (S. aureus MRSA N315; raw MIC, first block, test b, repetition 1, read-out: MIC1b): 3.125 µM (≈ 12.1 µg/mL)
- MIC (S. aureus MRSA N315; raw MIC, first block, test b, repetition 2, read-out: MIC2b): 1.56 µM (≈ 6.06 µg/mL)
- MIC (S. aureus MRSA N315; raw MIC, first block, test b, repetition 3, read-out: MIC3b): 1.56 µM (≈ 6.06 µg/mL)
- MIC (S. aureus MRSA N315; raw MIC, test a, repetition 1, read-out: MIC1a): 6.06 µM (≈ 23.5 µg/mL)
- MIC (S. aureus MRSA N315; raw MIC, test a, repetition 2, read-out: MIC2a): 12.12 µM (≈ 47.1 µg/mL)
- MIC (S. aureus MRSA N315; raw MIC, test a, repetition 3, read-out: MIC3a): 6.06 µM (≈ 23.5 µg/mL)
- MIC (S. aureus MRSA N315; raw MIC, test b, repetition 1, read-out: MIC1b): 6.06 µM (≈ 23.5 µg/mL)
- MIC (S. aureus MRSA N315; raw MIC, test b, repetition 2, read-out: MIC2b): 6.06 µM (≈ 23.5 µg/mL)
- MIC (S. aureus MRSA N315; raw MIC, test b, repetition 3, read-out: MIC3b): 6.06 µM (≈ 23.5 µg/mL)
- MIC in (μg/ml) (S. aureus MRSA N315; [16]): 6.1 ± 2.5 µg/mL (≈ 1.57 µM)
- MIC (S. aureus MRSA 12673; [4]): 1.56 µM (≈ 6.06 µg/mL)
- MIC (S. aureus MRSA 12673; [5]): 3.12 µM (≈ 12.1 µg/mL)
- MIC (S. aureus MRSA 12673; [6]): 1.56 µM (≈ 6.06 µg/mL)
- MIC (S. aureus MRSA 12673; [7]): 1.56 µM (≈ 6.06 µg/mL)
- MIC (S. aureus MRSA 12673; [8]): 3.12 µM (≈ 12.1 µg/mL)
- MIC (S. aureus MRSA 12673; [9]): 3.12 µM (≈ 12.1 µg/mL)
- MIC (S. aureus MRSA 12673; [10]): 6.06 µM (≈ 23.5 µg/mL)
- MIC (S. aureus MRSA 12673; [11]): 6.06 µM (≈ 23.5 µg/mL)
- MIC (S. aureus MRSA 12673; [12]): 6.06 µM (≈ 23.5 µg/mL)
- MIC (S. aureus MRSA 12673; [13]): 6.06 µM (≈ 23.5 µg/mL)
- MIC (S. aureus MRSA 12673; [14]): 12.12 µM (≈ 47.1 µg/mL)
- MIC (S. aureus MRSA 12673; [15]): 12.12 µM (≈ 47.1 µg/mL)
- MIC in (μg/ml) (S. aureus MRSA 12673; [16]): 6.1 ± 3.1 µg/mL (≈ 1.57 µM)
- cell lysis (haemolysis) (sheep erythrocytes; 12.5 µM): 15%
- cell lysis (haemolysis) (sheep erythrocytes; 100 µM): 93%
- hemolysis at MIC concentrations (sheep erythrocytes; 6.25–0.78 μM): lack of hemolysis
- MIC [2, 4]: 6.25 µM (≈ 24.3 µg/mL)
- MIC [2, 5]: 3.1 µM (≈ 12 µg/mL)
- MIC [2, 6]: 6.25 µM (≈ 24.3 µg/mL)
- MIC [2, 7]: 6.25 µM (≈ 24.3 µg/mL)
- MIC [2, 8]: 6.25 µM (≈ 24.3 µg/mL)
- MIC [2, 9]: 3.1 µM (≈ 12 µg/mL)
- MIC [2, 10]: 24.27 µM (≈ 94.2 µg/mL)
- MIC [2, 11]: 12.14 µM (≈ 47.1 µg/mL)
- MIC [2, 12]: 24.27 µM (≈ 94.2 µg/mL)
- MIC [2, 13]: 24.27 µM (≈ 94.2 µg/mL)
- MIC [2, 14]: 24.27 µM (≈ 94.2 µg/mL)
- MIC [2, 15]: 12.14 µM (≈ 47.1 µg/mL)
- MIC in (μg/ml) [2, 16]: 24.3 ± 6.3 µg/mL (≈ 6.26 µM)
- MIC [3, 4]: 50 µM (≈ 194 µg/mL)
- MIC [3, 5]: 50 µM (≈ 194 µg/mL)
- MIC [3, 6]: 50 µM (≈ 194 µg/mL)
- MIC [3, 7]: 25 µM (≈ 97.1 µg/mL)
- MIC [3, 8]: 50 µM (≈ 194 µg/mL)
- MIC [3, 9]: 50 µM (≈ 194 µg/mL)
- MIC [3, 10]: 194.2 µM (≈ 754 µg/mL)
- MIC [3, 11]: 194.2 µM (≈ 754 µg/mL)
- MIC [3, 12]: 194.2 µM (≈ 754 µg/mL)
- MIC [3, 13]: 97.1 µM (≈ 377 µg/mL)
- MIC [3, 14]: 194.2 µM (≈ 754 µg/mL)
- MIC [3, 15]: 194.2 µM (≈ 754 µg/mL)
- MIC in (μg/ml) [3, 16]: 194.2 ± 39.6 µg/mL (≈ 50 µM)
